Results reported in the Kinase Knowledgebase extract (Sharma et al. 2016).

What follows are compounds tested against MAPK14 (human) (UniProt Q16539) (assay: Inhibition of MAPK14 Kinase Activity).
MAPK14 (human), sequence (Q16539 whole entry, looked up): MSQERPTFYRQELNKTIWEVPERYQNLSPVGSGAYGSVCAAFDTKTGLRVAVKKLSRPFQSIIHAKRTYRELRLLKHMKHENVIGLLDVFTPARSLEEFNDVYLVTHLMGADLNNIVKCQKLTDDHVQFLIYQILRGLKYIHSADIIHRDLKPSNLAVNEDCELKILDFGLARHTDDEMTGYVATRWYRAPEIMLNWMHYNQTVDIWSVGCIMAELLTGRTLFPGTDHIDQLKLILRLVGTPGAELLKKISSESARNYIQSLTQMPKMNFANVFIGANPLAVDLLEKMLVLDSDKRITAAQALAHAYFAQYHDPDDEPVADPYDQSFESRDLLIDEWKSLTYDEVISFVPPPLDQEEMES

IC50, ≤ 1000 nM:
CC(=O)NCC(=O)NCc1nc(-c2ccc(F)cc2)c(-c2nc(C(=O)NC(C)C)cs2)o1, Cc1nc(-c2ccc(F)cc2)c(-c2nc(C(=O)NC(CO)C(C)C)cs2)s1 (stereo not given), O=C(NCC(F)(F)F)c1csc(-c2c(-c3ccc(F)cc3)ncn2C2CCNCC2)n1, COc1ccc(CNCc2nc(-c3ccc(F)cc3)c(-c3nc(C(=O)NC(C)C)cs3)o2)cc1O, Cc1onc(-c2ccc(Cl)cc2)c1-c1ccn(C(=O)NC(C)C)n1, CC(C)NC(=O)c1csc(-c2oc(CN3CCN(C(=O)C4CCc5ccccc54)CC3)nc2-c2ccc(F)cc2)n1 (stereo not given), CCOC(=O)CC(=O)NCc1nc(-c2ccc(F)cc2)c(-c2nc(C(=O)NC(C)C)cs2)o1, Cc1nc(-c2ccc(F)cc2)c(-c2nc(C(=O)NCc3ccccn3)cs2)s1, Cc1nc(-c2ccc(F)cc2)c(-c2nc(C(=O)NCCc3ccc(O)cc3)cs2)s1, CC(C)NC(=O)c1csc(-c2c(-c3ccc(F)cc3)noc2C2CCN(C(=O)CO)CC2)n1, CC(C)NC(=O)c1csc(-c2oc(CNC(=O)c3ccc(C#N)cc3)nc2-c2ccc(F)cc2)n1, CC(C)NC(=O)c1csc(-c2oc(CNC(=O)C3CN(C(=O)OC(C)(C)C)CCN3)nc2-c2ccc(F)cc2)n1 (stereo not given), CC(C)NC(=O)c1csc(-c2oc(CNC(=O)c3c(Cl)cc(Cl)cc3Cl)nc2-c2ccc(F)cc2)n1, Cc1nc(-c2ccc(F)cc2)c(-c2nc(C(=O)NC3CCN(Cc4ccccc4)C3)cs2)s1 (stereo not given), CC(C)NC(=O)c1csc(-c2oc(CNC(=O)C=Cc3ccccc3O)nc2-c2ccc(F)cc2)n1, CC(=O)Oc1ccccc1C(=O)NCc1onc(-c2ccc(F)cc2)c1-c1nc(C(=O)NC(C)C)cs1, Cc1cccc(N2CCN(C(=O)c3csc(-c4sc(C)nc4-c4ccc(F)cc4)n3)CC2C)c1 (stereo not given), Cc1nc(-c2ccc(F)cc2)c(-c2nc(C(=O)NCc3ccc4c(c3)OCO4)cs2)s1, Cc1nc(-c2ccc(F)cc2)c(-c2nc(C(=O)Nc3ccc(N(C)C)cc3)cs2)s1, O=C(NCCO)c1csc(-c2c(-c3ccc(F)cc3)n[nH]c2C2CCNCC2)n1, O=C(NCc1ccncc1)c1csc(-c2c(-c3ccc(F)cc3)n[nH]c2C2CCNCC2)n1, CCCCOc1ccc(C(=O)N2CCC(c3[nH]nc(-c4ccc(F)cc4)c3-c3nc(C(=O)NC(C)C)cs3)CC2)cc1, CC(C)NC(=O)c1csc(-c2oc(CN3CCN(C(=O)c4ccccc4C=O)CC3)nc2-c2ccc(F)cc2)n1, CNC(=O)c1csc(-c2sc(C)nc2-c2ccc(F)cc2)n1, COCCOCC(=O)N1CCC(c2[nH]nc(-c3ccc(F)cc3)c2-c2nc(C(=O)NC(C)C)cs2)CC1, CC(C)NC(=O)c1csc(-c2oc(CNC(C)C(C)C)nc2C2=CC=C(F)OC2)n1 (stereo not given), Cc1nc(-c2ccc(F)cc2)c(-c2nc(C(=O)Nc3ccccc3-c3ccccc3)cs2)s1, CC(C)NC(=O)c1csc(-c2oc(CNC(=O)c3cccc(O)c3O)nc2-c2ccc(F)cc2)n1, Cc1nc(-c2ccc(F)cc2)c(-c2nc(C(=O)NCC3CCCO3)cs2)s1 (stereo not given), Cc1nc(-c2ccc(F)cc2)c(-c2nc(C(=O)NCc3cc(F)cc(F)c3)cs2)s1, Cc1nc(-c2ccc(F)cc2)c(-c2nc(C(=O)NCc3ccc(Cl)c(Cl)c3)cs2)s1, COc1ccc(OC)c(CCNC(=O)c2csc(-c3sc(C)nc3-c3ccc(F)cc3)n2)c1, COCC(=O)N1CCC(c2[nH]nc(-c3ccc(F)cc3)c2-c2nc(C(=O)NC(C)C)cs2)CC1, CC(=O)c1ccc(C(=O)NCc2nc(-c3ccc(F)cc3)c(-c3nc(C(=O)NC(C)C)cs3)o2)cc1, CC(=O)Nc1ccc(NC(=O)c2csc(-c3sc(C)nc3-c3ccc(F)cc3)n2)cn1, CCOC(=O)CC(=O)N1CCC(c2[nH]nc(-c3ccc(F)cc3)c2-c2nc(C(=O)NC(C)C)cs2)CC1, Cc1[nH]nc(-c2ccc(F)cc2)c1-c1nc(C(=O)NCC2CC2)cs1, CC(=O)c1ccccc1C(=O)N1CCN(Cc2nc(-c3ccc(F)cc3)c(-c3nc(C(=O)NC(C)C)cs3)o2)CC1, CC(C)NC(=O)c1csc(-c2c(-c3ccc(F)cc3)n[nH]c2C2CCN(C(=O)c3cc(O)ccc3[N+](=O)[O-])CC2)n1, Cc1onc(-c2ccc(F)cc2)c1-c1ccn(C(=O)NC(C)C)n1
